Like-named read-outs stand apart in the source and are kept apart here. Blank lines part the entries; values can stand above or below the compound they belong to.
Columns and labels:
[1] = tested on: Nrf2 gene target NQO1; assay: NQO1 expression (immunoblotting) in primary human renal cortical cells; format: cell-based
Procedure: Cell culture: Primary human distal tubule cells from human adult kidneys were isolated and cultured as previously described (Emlet et al., Am. J. Physiol.-Ren. Physiol. 312, (2017)). Confluent monolayers of cells were incubated with vehicle control, LiCl or CDDO-Im for 18 hr in serum-free hormonally defined media followed by preparation of lysates for immunoblotting.
(§1) Immunoblotting: Flash-frozen kidneys were homogenized in ice-cold Radio Immuno Precipitation Assay (RIPA) buffer containing protease and phosphatase inhibitor cocktails. Cells were treated as indicated. At time of collection, cells were washed 2× with cold PBS and lysates were prepared in 4° C. lysis buffer containing protease inhibitors. Protein was quantified by bicinchoninic acid (BCA) assay (Pierce) and sample containing 15-25 μg total cellular protein was loaded on 4-12% reducing Bis-Tris gel. Resolved proteins were transferred to 0.45 μm nitrocellulose membrane, blocked with 5% non-fat dry milk or 5% bovine serum albumin in TRIS® buffered saline (TBS)-0.1% Tween 20 for 1 hr. Membranes were incubated with primary antibody (1:1000 dilution) for 1 hr at room temperature or overnight at 4° C. Appropriate secondary antibody was applied at dilution of 1:5000 for 1 hr, membrane washed thrice in TBS-0.1% Tween-20 and membrane visualized with Clarity ECL chemiluminescence kit and ChemiDoc imager (Bio-Rad, Hercules, Calif.).
To establish a murine model of NDI, mice were administered control chow diet or 0.17% LiCl diet for 0-7 days (FIG. 1A) during which body weight, food intake (Suppl. FIG. 1) and water intake (FIG. 1B) were monitored. […]
To further test the distribution of Nrf2 and sensitivity to activation in a translational model, NQO1 expression was determined in a cell culture model systems of primary human renal cortical cells representing proximal tubule (PT) and distal tubule (DT) cell populations (Emlet et al., Am. J. Physiol. - Ren. Physiol. 312, (2017)) in the presence or absence of the Nrf2 activator CDDO-Imidazolide (CDDO-Im) (FIG. 5C-F). […]

[2] = Dietary Li administration in Keap1f/f mice (constitutive Nrf2 activation); format: in vivo
Procedure: (§2) Water and Urine: Mice and food were weighed daily. Water was supplied in 50 mL conical with sipper tube as described (bio-protocol.org/e1822), and daily water intake was determined by weight. Spot urine was collected after spontaneous voiding on plastic wrap and urine osmolality measured in technical duplicate with Wescor 5500® Vapor Pressure Osmometer using lOuL urine and the average value reported each mouse.
as §1
Consequently, Li was administered to mice with constitutive pharmacomimetic Nrf2 activation (Keap1^f/f) to test whether Nrf2 and Li induced NDI via synergistic or additive mechanisms (FIG. 3A). To our surprise, instead of exacerbating the renal toxicity of Li, activation of Nrf2 signaling conferred significant protective effects.
The duration of Li therapy in humans is on the order of months to decades. An experiment was done to evaluate if Nrf2 hyperactivation conferred long-term protection from the development of Li-NDI. 6-8 week old WT and Keap1^flox/flox mice were randomized to control or 0.17% LiCl diet for 8 months.

[3] = Nrf2-/- mice
[4] = tested on: Nrf2; assay: 10-nitro-9(E)-octadec-9-enoic acid in nephrogenic diabetes insipidus; conditions: in vivo
Description: The pharmacologic activation of Nrf2 with CDDO-Me provided motivation to evaluate the viability of 10-nitro-9(E)-octadec-9-enoic acid as an activator and potential API for treating or preventing NDI.

[5] = tested on: Nrf2; assay: CDDO-Me in the Li-NDI mouse model; format: in vivo, mice; conditions: 5 mg/kg I.P., q.d.
Procedure: FIGS. 9A-9J. Pharmacologic activation of Nrf2 using CDDO-Me protects against polydipsia in Li-NDI via an AQP2-independent mechanism. (A) Schematic of model of Li-NDI. All mice received normal chow for 0-3d and were randomized to vehicle or CDDO-Me (5 mg/kg I.P., q.d.). At day 3, mice were randomized to either normal chow or 0.17% LiC1 diet. (B) Animal weights as a function of time, normalized to starting weight. (C) 24 hr food intake normalized to body weight. (D) Changes in water intake as a % of baseline expressed as mean±SE (n=6-8 per group). *(p<0.05) denotes statistical significance compared to LiC1-Vehicle by two-way ANOVA with Dunnet correction for multiple comparisons. (E) Immunoblotting of whole-kidney lysates for glycosylated ( ? , 45 kDa) and non-glycosylated ( ? , 29 kDa) AQP2 and NQO1; (F-H) Densitometry showing individual values, mean±SE with statistical analysis by one-way ANOVA with Tukey correction for multiple comparisons. (I) Plasma Li concentration. […]
as §2, with “mouse. […]” for “mouse.”

SMILES: [Cl-].[Li+] [LiCl]
- renal protein expression of Nrf2 gene target NQO1 (0.17% LiCl diet, 7 days): without impacting
- Water intake (0.17% LiCl diet, after 4 days): significantly increased
- renal expression of AQP2 (0.17% LiCl diet, by 7 days): significantly downregulated
- urine osmolality (hyposthenuria) (0.17% LiCl diet, day 7, spot urine): significant hyposthenuria
- Expression of NQO1 in kidney (Example 4, Li treatment): not affected
- glycosylated and non-glycosylated AQP2 isoforms in kidney (Example 4, both WT and Keap1f/f groups): significantly reduced
- volume status when water intake clamped to baseline intake (LiCl diet, baseline-clamped water): significant volume depletion with hypernatremia and polycythemia
- renal expression of CA-II (WT animals): reduced
- renal COX-1 expression (WT mice): down-regulate
- renal COX-2 expression (WT mice): down-regulate
- spot urine osmolality (WT-Li cohort, day 13): 359+/−192 mOsm/kg
- reduction in body mass (WT-Li mice, Example 4): ~5%
- plasma Li+ (both WT and Keap1f/f groups on LiCl diet): equivalently elevated
- total expression of NCC (tNCC) (kidney lysates, WT-Li cohort): unchanged
- Activating phosphorylation of NCC at threonine 53 (pNCC, T53) (kidney lysates, both genotypes): reduced
- NQO1 expression ([1]; Li 10 mM and 50 mM, Mucin 1-enriched distal tubule cells and CD10/CD13 proximal tubule cells): No increase
- water intake (polydipsia) ([2]; Keap1f/f mice receiving Li): normodipsic
- body mass change vs control diet ([2]; Keap1f/f mice receiving LiCl): no change
- urine osmolality ([2]; Keap1f/f-Li cohort, day 13): 758+/−703 mOsm/kg
- average daily water intake compared to WT-Ctrl ([2]; Keap1flox/flox-Li mice, 0.17% LiCl diet): no significant increase
- total expression of NCC (tNCC) ([2]; kidney lysates, Keap1f/f-Li cohort): significantly reduced
- body weight ([3]; Li diet 6 days): slightly reduced
- Food intake ([3]; first 3 days of LiCl diet): modestly suppressed
- urine osmolality ([3]; spot urine, day 11): 176+/−43 mOsm/kg

SMILES: CC1(C)CC[C@]2(C(=O)n3ccnc3)CC[C@]3(C)[C@H](C(=O)C=C4[C@@]5(C)C=C(C#N)C(=O)C(C)(C)[C@@H]5CC[C@]43C)[C@@H]2C1 [CDDO-Im, CDDO-Imidazolide]
- NQO1 expression ([1]; CD-10/CD-13 positive HAK cells (proximal tubule), exposure to CDDO-Im): did not further increase
- elevation in NQO1 ([1]; MUC1 positive cells (distal tubule), exposure to CDDO-Im): 3 fold

SMILES: CCCCCCCC/C(=C\CCCCCCCC(=O)O)[N+](=O)[O-] [10-nitro-9(E)-octadec-9-enoic acid]
- symptoms of nephrogenic diabetes insipidus [4]: reduced symptoms of nephrogenic diabetes insipidus

- food consumption ([5]; with LiCl diet): without impacting
SMILES: COC(=O)[C@]12CCC(C)(C)C[C@H]1[C@H]1C(=O)C=C3[C@@]4(C)C=C(C#N)C(=O)C(C)(C)[C@@H]4CC[C@@]3(C)[C@]1(C)CC2 [CDDO-Me, Bardoxolone methyl]
- increase of renal NQO1 expression ([5]; whole-kidney lysates): 2- to 3 fold

— US20220273703A1, “NRF2 ACTIVATION FOR TREATMENT OF NEPHROGENIC DIABETES INSIPIDUS” (University Of Pittsburgh-Of The Commonwealth System Of …, priority 2019, published 2022)
